Assays:
Format in all cases: cell-based
[1] = test system: human EBs (from human ES cells); test: In situ hybridization to NF-L RNA in cells derived from dissociated EBs; details: for proportion of neuronal cells in the cultures (NF-L RNA): controls 21%
Experimental: (§1) In Situ Hybridization and Immunohistochemistry: EBs or their plated derivatives were fixed in 4% paraformaldehyde. In in-situ experiments, hybridization to a 50-mer 2′-O-methyl 5′-biotinylated cDNA of NF-L (SEQ ID NO:1) (CCTGCGTGCGGATGGAC […]) followed. The probes were then detected with streptavidin-conjugated alkaline phosphatase using a fluorogenic substrate (Grifman et al, 1998). For immunohistochemistry, EBs were either embedded in paraffin and sectioned at 10 μM, or stained directly on the plates. Mouse monoclonal anti-NF-II was used as a primary antibody, and was detected with Cy3-conjugated goat anti-mouse igG.
(§2) Cell Culture. Human ES cells were grown and EBs were generated as described in Example 1. Four days following initiation of aggregation growth factors were administered: retinoic acid (Sigma): 10-^7 M (Bain et al, 1995) or 10^−6 (Bain et al, 1996); TGFβ1 (Sigma): 2 ng/ml (Slager et al, 1993); βNGF (New Biotechnology, Israel): 100 ng/ml (Wobus et al, 1988). After 21 days, EBs were plated on 5 μm/cm^2 collagen treated plates, either as whole EB's, or as single cells dissociated with trypsin/EDTA. The cultures were maintained for an additional week or 2 days, respectively.
In situ hybridization and immunohistochemistry was carried out according to Example 1. RT-PCR analysis. cDNA was synthesized from total RNA and PCR performed according to Example I. Primers for GAPDH, serotonin receptors 2A and 5A (5HT2A7 5HT5A, respectively) and dopamine receptor D1 (DRD1) were purchased from Clontech. The primers for dopa decarboxylase (DDC) were: […] (SEQ ID NO:2) and […] (SEQ ID NO:3).
Differentiation was initially assayed by in-situ hybridization to neurofilament light chain (NF-L) RNA, which is expressed by both immature and fully differentiated neurons (Carden et al, 1987).

human EBs = test: NF-H immunostaining of plated EBs, neuronal network complexity; details: RA treatment and plating on collagen; untreated EBs 54%
Experimental: as §1, §2
In situ hybridization and immunohistochemistry was carried out according to Example 1. […]

[2] = test system: human differentiated embryonic (DE) cells; test: RT-PCR of cell specific genes in DE cells treated with growth factors; details: for blood formation / differentiation into ectodermal cells / differentiation into kidney cells / differentiation into mesodermal cells / differentiation into skin cells / differentiation of brain cells (neurons) / differentiation of heart cells / differentiation of muscle / differentiation into chondrocytes / differentiation into endodermal cells / differentiation toward liver (hepatocytes) / differentiation toward pancreas (islet cells) / differentiation into Mullerian duct cells: vs control without growth factor (FIG. 4); for expression of uro-genital marker WT-1 / set of cell specific transcripts produced: DE cells, 10 days with factor; for overall induction or repression of cell specific expression (FIG. 3B): at least three experiments
Experimental: (§3) Cell Culture: Human embryonic stem cells were grown on a feeder layer of mouse embryonic fibroblasts (MEF) and then transferred to gelatin coated plates and cultured further to reduce the number of murine cells in the culture. Differentiation into embryoid bodies (EBs) was initiated by transfer to Petri dishes, where the embryoid bodies remained in suspension. After 5 days, the EBs become dissociated and cells are cultured as a monolayer forming differentiated embryonic (DE) cells. This protocol allows for initial differentiation of the human embryonic stem cells as aggregates and further differentiation as a monolayer wherein cells can be exposed to exogenous growth factors. The DE cells were cultured for 10 days in the presence of 8 different growth factors: NGF, bFGF, Activin-A, TGFβ1, HGF, EGF, BMP4 and retinoic acid (RA) (FIG. 1A).
To induce formation of EBs, ES cells were transferred using trypsin/EDTA (0.1%/l mM) to plastic Petri dishes to allow their aggregation and prevent adherence to the plate. Human EBs were grown in the same culture medium, except that it lacked leukemia inhibitory factor (LIF) and bFGF. The EBs were cultured for 5 days and then dissociated and plated on tissue culture plates coated with 50 μg/ml Fibronectin (Boehringer Mannheim). The cells were grown in the presence of the following human recombinant growth factors used singly or in groups: Basic Fibroblast Growth Factor (bFGF) (Swoboda et al, 1999)—10 ng/ml (Gibco BRL); Transforming Growth Factor Beta 1 (TGFβ1) (Swoboda et al, 1999)—2 ng/ml (R&D Systems); Activin-A (Slager et al, 1993)—20 ng/ml (R&D Systems); Bone Morphogenic Protein 4 (BMP-4) (Slager et al, 1993; Bain et al, 1996)—10 ng/ml (R&D Systems); Hepatocyte Growth Factor (HGF)/Scatter Factor (Doetsch et al, 1999)—20 ng/ml (R&D Systems); Epidermal Growth Factor (EGF) (Doetsch et al, 1999)—100 ng/ml (R&D Systems); βNerve Growth Factor (NGF) (Johansson et al, 1999)—100 ng/ml (R&D Systems); Retinoic acid (RA) (Deacon et al, 1998; Peschanski et al, 1995)—1 μM (Sigma). Under these conditions the differentiated embryonic (DE) cells were grown for another 10 days. All of the examined growth factors are absent from the KnockOut™ serum replacement in which the embryonic cells were cultured.
RT-PCR Analysis: Total RNA was extracted using Atlas™ Pure Total RNA Kit (Clontech). cDNA was synthesized from 1 μg total RNA, using Atlas™ RT-for-PCR Kit (Clontech). cDNA samples were subjected to PCR amplification with DNA primers selective for the human genes. For each gene, the DNA primers were derived from different exons to ensure that the PCR product represents the specific mRNA species and not genomic DNA. PCR was performed using the Clontech Advantaq+™ RT-PCR kit and using a two-step cycle at 68° C.
Primers were synthesized for the following genes: neurofilament heavy chain (NF-H), phosphoprotein enriched in astrocytes (PEA-15), Keratin, Dopamine β Hydroxylase (DβH), Follicular Stimulating Hormone (FSH), Enolase, Myosin light polypeptide2 (myosin), Cartilage Matrix Protein (CMP), Renin, Kallikrein, Wilms Tumor 1 (WTI), β-Globin (β-Glob), δ-Globin (δ-Glob), Cardiac Actin (cACT), Albumin, α1 anti-trypsin (α1 AT), Lipase, Amylase, PDX-1, Insulin, Glucagon, Surfactant, Parathyroid Hormone (PTH), α-feto protein (αFP), Retinoic Acid Receptor type alpha (RAR), Hepatocyte Growth Factor Receptor (c-Met), Nerve Growth Factor Receptor (NGFR), Fibroblast Growth Factor Receptor type I (FGFRI), Transforming Growth Factor Receptor type II (TGFRII), Epidermal Growth Factor Receptor type (EGFR), Activin Receptor type IIB (ACTRIIB), Bone Morphogenic Protein 4 Receptor type II (BMP4RII), Octamer Binding Protein 4 (Oct 4), Glyceraldehyde 3-phosphate dehydrogenase (G3PD), β-Actin. Also incorporated by reference, see http://www.ls.huji.ac.il/˜nissimb/factors_es/primers.html-ente.
The differentiation induced by growth factors was further examined by determining the expression of a panel of 24 cell specific genes using RT-PCR. […]

[3] = test system: human differentiated embryonic (DE) cells; test: Morphology of DE cells cultured with growth factors; details: several days on plastic, continuous exposure to growth factor (FIG. 1B)
Experimental: as §3
To induce formation of EBs, ES cells were transferred using trypsin/EDTA (0.1%/l mM) to plastic Petri dishes to allow their aggregation and prevent adherence to the plate. Human EBs were grown in the same culture medium, except that it lacked leukemia inhibitory factor (LIF) and bFGF. The EBs were cultured for 5 days and then dissociated and plated on tissue culture plates coated with 50 μg/ml Fibronectin (Boehringer Mannheim). […]

Q: With `CC1=C(/C=C/C(C)=C/C=C/C(C)=C/C(=O)O)C(C)(C)CCC1` [RA, retinoic acid, reference compound] as the compound, how does the “proportion of neuronal cells in the cultures (NF-L RNA)” value ([1]; high concentration of RA (10^−6 M)) read?
A: 52%

Q: What about the “number of EBs containing NF-H positive neurons” value (human EBs) of the same compound?
A: 76%

Q: “EGF: human recombinant Epidermal Growth Factor, 100 ng/ml (NSDSECPLSHDGYCLHDGVCMYIEALDKYACNCVVGYIGERCQYRDLKWWELR; UniProt P01133 971-1023, looked up)” was tested. Which blood formation [2] did it give?
A: inhibits

Q: What about the “differentiation into ectodermal cells” value [2] of the same compound?
A: allow or induce

Q: What about the “differentiation into kidney cells” value [2] of the same compound?
A: inhibits

Q: And the “differentiation into mesodermal cells” value [2]?
A: allow or induce

Q: What about the “differentiation into skin cells” value [2] of the same compound?
A: stimulate

Q: And the “differentiation of brain cells (neurons)” value [2]?
A: inhibits

Q: What about the “differentiation of heart cells” value [2] of the same compound?
A: stimulate

Q: What about the differentiation of muscle [2] of the same compound?
A: permits normal levels

Q: “HGF: human recombinant Hepatocyte Growth Factor/Scatter Factor, 20 ng/ml” was tested. Which “cell morphology found in treated culture” value [3] did it give?
A: large populations of small cells with pronounced nuclei

Q: What about the “expression of uro-genital marker WT-1” value [2] of the same compound?
A: expressed

Q: And the blood formation [2]?
A: significant inhibition

Q: And the differentiation into chondrocytes [2]?
A: significant inhibition

Q: And the “differentiation into ectodermal cells” value [2]?
A: allows

Q: What about the “differentiation into endodermal cells” value [2] of the same compound?
A: allows

Q: What about the “differentiation into kidney cells” value [2] of the same compound?
A: completely inhibited

Q: And the “differentiation into mesodermal cells” value [2]?
A: allows

Q: What about the “differentiation into skin cells” value [2] of the same compound?
A: induced at their normal level

Q: And the “differentiation of brain cells (neurons)” value [2]?
A: significant inhibition

Q: And the “differentiation toward liver (hepatocytes)” value [2]?
A: significant inhibition

Q: And the “differentiation toward pancreas (islet cells)” value [2]?
A: significant inhibition

Q: Which “number of neuronal cells that develop from human embryonic cells” value ([1]; summary statement) does the source give for “NGF: human recombinant β nerve growth factor, 100 ng/ml” here?
A: enhance

Q: What about the “proportion of neuronal cells in the cultures (NF-L RNA)” value ([1]; βNGF 100 ng/ml) of the same compound?
A: 39%

Q: What about the “expression of adrenal markers” value [2] of the same compound?
A: not

Q: And the “expression of endodermal markers” value [2]?
A: induce

Q: What about the “expression of uro-genital marker WT-1” value [2] of the same compound?
A: expressed

Q: And the “set of cell specific transcripts produced” value [2]?
A: induce expression of a variety of transcripts indicative of cells from all three germ layers

Q: And the “overall induction or repression of cell specific expression (FIG. 3B)” value [2]?
A: induces the greatest variety of cell specific gene expression

Q: And the blood formation [2]?
A: stimulate

Q: What about the “differentiation into Mullerian duct cells” value [2] of the same compound?
A: direct the differentiation

Q: What about the differentiation into chondrocytes [2] of the same compound?
A: down-regulate

Q: And the “differentiation into ectodermal cells” value [2]?
A: allows

Q: What about the “differentiation into endodermal cells” value [2] of the same compound?
A: allows

Q: And the “differentiation into kidney cells” value [2]?
A: direct the differentiation

Q: What about the “differentiation into mesodermal cells” value [2] of the same compound?
A: allows

Q: And the “differentiation into skin cells” value [2]?
A: completely inhibited

Q: What about the “differentiation of brain cells (neurons)” value [2] of the same compound?
A: direct the differentiation

Q: And the “differentiation of heart cells” value [2]?
A: stimulate

Q: And the differentiation of muscle [2]?
A: down-regulate

Q: What about the “differentiation toward liver (hepatocytes)” value [2] of the same compound?
A: direct the differentiation

Q: And the “differentiation toward pancreas (islet cells)” value [2]?
A: direct the differentiation

Q: “TGFβ1: human recombinant Transforming Growth Factor Beta 1, 2 ng/ml” was tested. Which “effect on neuronal differentiation (NF-L RNA)” value ([1]; TGFβ1 2 ng/ml) did it give?
A: no effect

Q: What about the “set of cell specific transcripts produced” value [2] of the same compound?
A: relatively reduced set of specific transcripts

Q: And the “overall induction or repression of cell specific expression (FIG. 3B)” value [2]?
A: mostly repress or fail to direct differentiation of as many cell types

Q: And the blood formation [2]?
A: inhibit

Q: And the “differentiation into Mullerian duct cells” value [2]?
A: inhibit

Q: And the differentiation into chondrocytes [2]?
A: inhibit

Q: What about the “differentiation into ectodermal cells” value [2] of the same compound?
A: inhibit

Q: And the “differentiation into endodermal cells” value [2]?
A: inhibit

Q: What about the “differentiation into kidney cells” value [2] of the same compound?
A: inhibit

Q: What about the “differentiation into mesodermal cells” value [2] of the same compound?
A: allow differentiation into selected mesodermal cells

Q: Which “cell morphology found in treated culture” value [3] does the source give for “bFGF: human recombinant Basic Fibroblast Growth Factor, 10 ng/ml” here?
A: fibroblast like cells

Q: What about the “differentiation into ectodermal cells” value [2] of the same compound?
A: allow or induce

Q: And the “differentiation into kidney cells” value [2]?
A: inhibits

Q: What about the “differentiation into mesodermal cells” value [2] of the same compound?
A: allow or induce

Q: What about the “differentiation into skin cells” value [2] of the same compound?
A: permits formation of normal levels

Q: What about the “differentiation of brain cells (neurons)” value [2] of the same compound?
A: permits formation of normal levels

Q: And the “differentiation of heart cells” value [2]?
A: stimulates

Q: And the differentiation of muscle [2]?
A: permits formation of normal levels

— patent US7772001B2, “Directed differentiation of embryonic stem cells into an endoderm cell” (Yissum Research Development Company Of the Hebrew …, priority 2000, dated 2010)
